From patent US20230099031A1, “BIFUNCTIONAL AGENTS FOR PROTEIN RECRUITMENT AND/OR DEGRADATION” (Orionis Biosciences, Inc., priority 2019, published 2023)

Key:
Assay type in all cases: cell-based
[1] = biological target: T1, SALL4 (Homo sapiens, UniProt Q96SW2+Q9UJQ4); assay: Recruitment Assay (MAPPIT-like): SALL4 recruitment, pSEL-SALL4+pMG1-CRBN; conditions: recruitment of SALL4, protocol of Example 2; read-out: EC50_SALL4
T1 construct: Full size proteins are fused for each of the target proteins tested; expressed in transfected cells; host or cells: HEK293T
Method: (§1) In this experimental set-up, cells are transfected with a construct encoding a CRBN-fusion protein and another one encoding a substrate-fusion protein. Test compound activity is assessed with increasing concentrations of test compounds (dose-response studies) to monitor the ability to promote CRBN-ligand-induced protein interaction.
(§2) Full size proteins are fused for each of the target proteins tested, except in the case of IKZF1 where isoform 7 is used, and BRD4, where isoform 3 is applied. For the study, the following construct combinations are used: IKZF1 recruitment: pSEL-CRBN+pMG1-IKZF1(isoform 7); ASS1 recruitment: pSEL-CRBN+pMG1-ASS1; SALL4 recruitment: pSEL-SALL4+pMG1-CRBN; DHFR recruitment: pCLG-DHFR+pMG1-CRBN; ESR1 recruitment: pSEL-CRBN+pMG1-ESR1; BRD4 recruitment: pSEL-CRBN+pMG1-BRD4(isoform 3). Cells are treated with erythropoietin (Epo; where pSEL-type receptor fusions constructs are used) or leptin (in the case pCLG-type receptor fusion constructs are applied) without or with the indicated dose of test compound at 24 hours after transfection. Luciferase activity is measured 24 hours after test compound treatment using the Luciferase Assay System kit (PROMEGA, Madison, Wis.) with an Ensight plate reader (PERKIN ELMER LIFE SCIENCES, Waltham, Mass.). Data points depict fold induction of the average luciferase activity of triplicate samples from Epo or leptin+test compound treated cells versus Epo or leptin only treated cells. Error bars represent standard deviations. Curves are fit using 4-parameter nonlinear regression in […] PRISM software.

[2] = biological target: T2, CRBN (Homo sapiens, UniProt Q96SW2); assay: Competition Assay: MAPPIT-like, competition with trimethoprim-lenalidomide hybrid ligand for binding to CRBN in HEK293T cells; conditions: protocol and reagents of Example 1; read-out: IC50 Competition
T2 construct: expressed in transfected cells; host or cells: HEK293T

[3] = biological target: T3, ASS1 (Homo sapiens, UniProt P00966+Q96SW2); assay: Recruitment Assay (MAPPIT-like): ASS1 recruitment, pSEL-CRBN+pMG1-ASS1; conditions: recruitment of ASS1, protocol of Example 2; for EC50: read-out: EC50_ASS1
T3 construct: Full size proteins are fused for each of the target proteins tested; expressed in transfected cells; host or cells: HEK293T
Method: as §1, §2

[4] = biological target: T4, IKZF1 (Homo sapiens, UniProt Q13422+Q96SW2); assay: Recruitment Assay (MAPPIT-like): IKZF1 recruitment, pSEL-CRBN+pMG1-IKZF1(isoform 7); conditions: recruitment of IKZF1, protocol of Example 2; read-out: EC50_IKZF1
T4 construct: expressed in transfected cells; host or cells: HEK293T
Method: as §1, §2

Row | SMILES | EC50 [1] [nM] | IC50 [2] [nM] | EC50 [3] [nM] | EC50 [4] [nM] | EC50_ASS1 (M) [3]
1 | Cc1cccc2nnn(C3CCC(=O)NC3=O)c(=O)c12 (centres unmarked) [Compound C13247, 3-(5-methyl-4-oxo-1,2,3-benzotriazin-3-yl)piperidine-2,6-dione] | 402 | 2290 | 8550 | 2880 | 
2 | CS(=O)(=O)Nc1cccc2c1CN(C1CCC(=O)NC1=O)C2=O (centres unmarked) [Compound C22548, N-[2-(2,6-dioxo-3-piperidyl)-1-oxo-isoindolin-4-yl]methanesulfonamide] | 631 | 1110 |  | 494 | >>
3 | O=C1CCC(N2Cc3cccc(F)c3C2=O)C(=O)N1 (centres unmarked) [Compound C23066, 3-(7-fluoro-1-oxo-isoindolin-2-yl)piperidine-2,6-dione] | 88.2 | 248 |  |  | >>
4 | O=C1CCC(N2Cc3c(Cl)cccc3C2=O)C(=O)N1 (centres unmarked) [Compound C24031, 3-(4-chloro-1-oxo-isoindolin-2-yl)piperidine-2,6-dione] | < 13.7 | 11.5 | 259 | 58.7 | 
5 | Cc1cccc2c1CN(C1CCC(=O)NC1=O)C2=O (centres unmarked) [Compound C28558, 3-(4-methyl-1-oxo-isoindolin-2-yl)piperidine-2,6-dione] | < 13.7 | 50.4 | 368 | 77.4 | 
6 | Cc1ccc2c(c1)CN(C1CCC(=O)NC1=O)C2=O (centres unmarked) [Compound C28577, 3-(5-methyl-1-oxo-isoindolin-2-yl)piperidine-2,6-dione] | < 13.7 | 113 | 653 | 1610 | 
7 | CC(=O)Nc1ccc2c(c1)CN(C1CCC(=O)NC1=O)C2=O (centres unmarked) [Compound C29361, N-[2-(2,6-dioxo-3-piperidyl)-1-oxo-isoindolin-5-yl]acetamide] | 186 | 1430 |  |  | >>
8 | O=C1CCCC(N2Cc3c(cccc3[N+](=O)[O-])C2=O)C(=O)N1 (centres unmarked) [Compound C29737, 3-(4-nitro-1-oxo-isoindolin-2-yl)azepane-2,7-dione] |  |  |  | 1410 | 
9 | O=C1CCC(N2Cc3c(NC(=O)Nc4cccc5c4CN(C4CCC(=O)NC4=O)C5=O)cccc3C2=O)C(=O)N1 (centres unmarked) [Compound C30231, 1,3-bis[2-(2,6-dioxo-3-piperidyl)-1-oxo-isoindolin-4-yl]urea] | 1780 | 247000 |  | 2730 | >>
10 | O=C1CCC(N2Cc3cc(NCCNC(=O)Nc4ccccc4)ccc3C2=O)C(=O)N1 (centres unmarked) [Compound C35751, 1-[2-[[2-(2,6-dioxo-3-piperidyl)-1-oxo-isoindolin-5-yl]amino]ethyl]-3-phenyl-urea] | 232 | 486 | 1450 |  | 
11 | CCOC(=O)NCCNc1ccc2c(c1)CN(C1CCC(=O)NC1=O)C2=O (centres unmarked) [Compound C35754, ethyl N-[2-[[2-(2,6-dioxo-3-piperidyl)-1-oxo-isoindolin-5-yl]amino]ethyl]carbamate] | 278 | 737 |  |  | >>
12 | O=C1CCC(N2Cc3cc(NCC(=O)Nc4ccccc4)ccc3C2=O)C(=O)N1 (centres unmarked) [Compound C35797, 2-[[2-(2,6-dioxo-3-piperidyl)-1-oxo-isoindolin-5-yl]amino]-N-phenyl-acetamide] | 1080 | 851 |  | 1330 | >>
13 | NC(=O)c1cccc(NC(=O)CNc2ccc3c(c2)CN(C2CCC(=O)NC2=O)C3=O)c1 (centres unmarked) [Compound C35811, 3-[[2-[[2-(2,6-dioxo-3-piperidyl)-1-oxo-isoindolin-5-yl]amino]acetyl]amino]benzamide] | 641 | 2440 |  |  | >>
14 | Cc1cccc2c(=O)n(C3CCC(=O)NC3=O)nnc12 (centres unmarked) [Compound C35830, 3-(8-methyl-4-oxo-1,2,3-benzotriazin-3-yl)piperidine-2,6-dione] | 588 | 3460 | 5560 |  | 
15 | O=C(CNc1ccc2c(c1)CN(C1CCC(=O)NC1=O)C2=O)NCc1ccccc1 (centres unmarked) [Compound C35856, N-benzyl-2-[[2-(2,6-dioxo-3-piperidyl)-1-oxo-isoindolin-5-yl]amino]acetamide] | 188 | 484 |  | 1150 | >>
16 | N#CC1c2ccccc2C(=O)N1C1CCC(=O)NC1=O (centres unmarked) [Compound C39453, 2-(2,6-dioxo-3-piperidyl)-3-oxo-isoindoline-1-carbonitrile] | 875 | 7520 |  | 17100 | 

Row | SMILES | EC50 [1] [nM] | IC50 [2] [nM] | EC50 [3] [nM] | EC50 [4] [nM] | EC50_ASS1 (M) [3]
17 | Nc1cccc2c1CN(C1CC(=O)NC1=O)C2=O (centres unmarked) [Compound C47930, 3-(4-amino-1-oxo-isoindolin-2-yl)pyrrolidine-2,5-dione] |  |  |  | 784 | 
18 | O=C1CCC(N2Cc3ncccc3C2=O)C(=O)N1 (centres unmarked) [Compound C47959, 3-(5-oxo-7H-pyrrolo[3,4-b]pyridin-6-yl)piperidine-2,6-dione] | 441 | 2570 |  |  | >>
19 | O=C(O)CNc1ccc2c(c1)CN(C1CCC(=O)NC1=O)C2=O (centres unmarked) [Compound C47995, 2-[[2-(2,6-dioxo-3-piperidyl)-1-oxo-isoindolin-5-yl]amino]acetic acid] | 518 | 3710 |  |  | >>
20 | N#Cc1cccc2c1CN(C1CCC(=O)NC1=O)C2=O (centres unmarked) [Compound C48003, 2-(2,6-dioxo-3-piperidyl)-1-oxo-isoindoline-4-carbonitrile] | 581 | 622 |  |  | >>
21 | N#Cc1ccc2c(c1)C(=O)N(C1CCC(=O)NC1=O)C2 (centres unmarked) [Compound C48007, 2-(2,6-dioxo-3-piperidyl)-3-oxo-isoindoline-5-carbonitrile] | 430 | 1340 |  | 1620 | >>
22 | O=C1CCC(N2Cc3c(cccc3-c3ccccc3)C2=O)C(=O)N1 (centres unmarked) [Compound C48014, 3-(1-oxo-4-phenyl-isoindolin-2-yl)piperidine-2,6-dione] | 62.1 | 24.3 | 921 | 1240 | 
23 | CC1c2ccccc2C(=O)N1C1CCC(=O)NC1=O (centres unmarked) [Compound C51383, 3-(1-methyl-3-oxo-isoindolin-2-yl)piperidine-2,6-dione] | 59.3 | 190 | 1700 | 1520 | 
24 | Nc1cccc2nnn(C3CCC(=O)NC3=O)c(=O)c12 (centres unmarked) [Compound C59904, 3-(5-amino-4-oxo-1,2,3-benzotriazin-3-yl)piperidine-2,6-dione] | 33 | 704 | 698 | 122 | 
25 | O=C1CCC(N2Cc3c(ccc4c3OCO4)C2=O)C(=O)N1 (centres unmarked) [Compound C67858, 3-(6-oxo-8H-[1,3]dioxolo[4,5-e]isoindol-7-yl)piperidine-2,6-dione] | 29.3 | 106 | 884 | 569 | 
26 | O=C1CCC(N2Cc3cc4c(cc3C2=O)OCO4)C(=O)N1 (centres unmarked) [Compound C68126, 3-(7-oxo-5H-[1,3]dioxolo[4,5-f]isoindol-6-yl)piperidine-2,6-dione] | 319 | 564 |  |  | >>
27 | N#Cc1ccc(Nc2ccc3c(c2)CN(C2CCC(=O)NC2=O)C3=O)nn1 (centres unmarked) [Compound C80378, 6-[[2-(2,6-dioxo-3-piperidyl)-1-oxo-isoindolin-5-yl]amino]pyridazine-3-carbonitrile] | 387 | 2210 | 9420 |  | 
28 | O=C1CCC(N2Cc3cc(Nc4ncc5c(n4)COC5)ccc3C2=O)C(=O)N1 (centres unmarked) [Compound C80380, 3-[5-(5,7-dihydrofuro[3,4-d]pyrimidin-2-ylamino)-1-oxo-isoindolin-2-yl]piperidine-2,6-dione] | 9.89 | 760 |  | 1780 | 
29 | O=C1CCC(N2C(=O)c3ccccc3C2O)C(=O)N1 (centres unmarked) [Compound C89940, 3-(1-hydroxy-3-oxo-isoindolin-2-yl)piperidine-2,6-dione] | 438 | 3290 |  |  | >>
30 | CN(C)c1ccc2c(c1)CN(C1CCC(=O)NC1=O)C2=O (centres unmarked) [Compound C98103, 3-[5-(dimethylamino)-1-oxo-isoindolin-2-yl]piperidine-2,6-dione] | < 13.7 | 145 |  | 1290 | >>
31 | O=C(O)CN1CCN(Cc2ccc(COc3cccc4c3CN(C3CCC(=O)NC3=O)C4=O)cc2)CC1 (centres unmarked) [ZE26-0001, formic acid] | 801 | 5760 |  | 4680 | >>
